Test system: HCV genotype 1a replicon
Assay: HCV genotype 1a replicon assay (NS3 protease activity readout)
Format: cell-based, hepatitis C virus
Conditions: for EC50: Hepatitis C virus, read-out: Genotype 1a, HCV genotype 1a replicon; for Genotype 1a: HCV genotype 1a replicon
Outline: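 EC50 values came from a 4-parameter robust fit of fluorescence (ex 340, em 509 nm) produced by NS3-specific protease in lysates, assayed with 15 μM FRET substrate for 20 min at 37° C, after 48 or 72 hours of compound exposure (0.5% DMSO) of Huh7.5-derived APC89 genotype 1a replicon cells.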

| SMILES | EC50 | Genotype 1a |
| --- | --- | --- |
| CCC(CO)(CO)C(=O)N1CCN(c2ccc(C(=O)Nc3cc(OC(F)(F)F)c(-c4ccc(-c5c[nH]c([C@@H]6C[C@H](C)CN6C(=O)[C@@H](NC(=O)OC)C(C)C)n5)cc4)cc3Cl)cn2)[C@H](C)C1 [Example 12-4] | < 0.1 nM |  |
| COC(=O)N[C@H](C(=O)N1C[C@@H](C)C[C@H]1c1nc(-c2ccc(-c3cc(Cl)c(NC(=O)c4ccc(N5CCN(C(=O)C6CC67CC7)C[C@H]5C)nc4)cc3C(F)(F)F)cc2)c[nH]1)C(C)C (some centres unmarked) [Example 1-89] |  | D (D represents pEC50>10 (EC50<0.1 nM)) |
| COC(=O)NC(C(=O)N1CC(C)CC1c1nc(-c2ccc(-c3ccc(NC(=O)c4ccc(N5CCN(C(=O)C(C)(C)C)CC5C)nc4)cc3OC(F)(F)F)cc2)c[nH]1)C(C)(C)O (centres unmarked) [Example 13-15] |  | D (D represents pEC50>10 (EC50<0.1 nM)) |
| COC(=O)N[C@H](C(=O)N1C[C@@H](OC)C[C@H]1c1nc(-c2ccc(-c3cc(Cl)c(NC(=O)c4ccc(N5C[C@H](C)N(C(=O)NC(C)(C)C)C[C@H]5C)nc4)cc3OC(F)(F)F)cc2)c[nH]1)C1CCOCC1 [Example 28-9] |  | D (D represents pEC50>10 (EC50<0.1 nM)) |
| COC(=O)N[C@H](C(=O)N1C[C@@H](C)C[C@H]1c1nc(-c2ccc(-c3cc(F)c(NC(=O)c4ccc(N5CCN(C(=O)C(C)(C)CO)C[C@H]5C)nc4)cc3OC(F)(F)F)cc2)c[nH]1)C(C)(C)O [Example 13-23] | < 0.1 nM |  |
| COC(=O)N[C@H](C(=O)N1[C@@H]2C[C@@H]2C[C@H]1c1nc(-c2ccc(-c3cc(Cl)c(NC(=O)c4ccc(N5CCN(C(=O)C(C)(C)C)C[C@H]5C)nc4)cc3C(F)(F)F)cc2)c[nH]1)C(C)C [Example 8-5] | 0.1 to 1 nM |  |
| COC(=O)N[C@H](C(=O)N1[C@H](c2nc(-c3ccc(-c4ccc(C(=O)Nc5ccc(N6CCN(C(=O)[C@]7(C)C[C@@H](O)CN7C(=O)OC(C)(C)C)C[C@H]6C)nc5)cc4OC(F)(F)F)cc3)c[nH]2)C[C@@H]2CCCC[C@@H]21)C(C)C [Example 6-16] | 1 to 10 nM |  |
| COC(=O)N[C@H](C(=O)N1C[C@@H](C)C[C@H]1c1nc(-c2ccc(-c3cc(Cl)c(NC(=O)c4ccc(N5CCN(C(=O)C(C)(C)C)C[C@H]5C)nc4)cc3OC(F)(F)F)cc2)c[nH]1)C1CCCC1 [Example 13-41] | < 0.1 nM |  |
| COC(=O)NC(C(=O)N1C[C@@H](C)C[C@H]1c1nc(-c2ccc(-c3c(F)cc(NC(=O)c4ccc(N5CCN(C(=O)C(C)(C)C)C[C@H]5C)nc4)cc3F)cc2)c[nH]1)C1CCS(=O)(=O)CC1 (some centres unmarked) [Example 21-2] | 10 to 1000 nM |  |
| COC(=O)N[C@H](C(=O)N1C[C@@H](C)C[C@H]1c1nc(-c2ccc(-c3cc(Cl)c(NC(=O)c4ccc(N5CCN(C(=O)C(C)(C)C)C[C@H]5C)nc4)cc3OC(F)(F)F)cc2)c(CO)[nH]1)C(C)C [Example 5-12] | < 0.1 nM |  |
| COC(=O)N[C@H](C(=O)N1C[C@@H](C)C[C@H]1c1nc(-c2ccc(-c3cc(Cl)c(NC(=O)c4ccc(N5CCN(C(=O)CC6CC6)C[C@H]5C)nc4)cc3OC(F)(F)F)cc2)c[nH]1)C(C)C [Example 1-98] |  | C (C represents pEC50 between and 9 and about 10, (EC50 between 1 nM and 0.1 nM)) |
| CCN(C)C(C)C(=O)N1CCN(c2ccc(C(=O)Nc3cc(OC(F)(F)F)c(-c4ccc(-c5c[nH]c([C@@H]6C[C@H](C)CN6C(=O)[C@@H](NC(=O)OC)C(C)C)n5)cc4)cc3Cl)cn2)[C@H](C)C1 (some centres unmarked) [Example 12-22] | 0.1 to 1 nM |  |
| COC(=O)N[C@H](C(=O)N1C[C@@H](C)C[C@H]1c1nc(-c2ccc(-c3cc(F)c(C(=O)Nc4ccc(N5CCN(C(=O)[C@H]6CC6(C)C)C[C@H]5C)nc4)cc3OC(F)(F)F)cc2)c[nH]1)C(C)C [Example 4-43] |  | C (C represents pEC50 between and 9 and about 10, (EC50 between 1 nM and 0.1 nM)) |
| COC(=O)NC(C(=O)N1CC(OC)CC1c1nc(-c2ccc(-c3cc(Cl)c(NC(=O)c4ccc(N5CCN(C(=O)C(C)(C)CO)CC5C)nc4)cc3OC(F)(F)F)cc2)c[nH]1)C(C)(C)O (centres unmarked) [Example 16-9] |  | D (D represents pEC50>10 (EC50<0.1 nM)) |
| COC(=O)N[C@H](C(=O)N1C[C@@H](C)C[C@H]1c1nc(-c2ccc(-c3ccc(C(=O)Nc4ccc(N5C[C@H](C)N(C(=O)[C@@]6(O)CC6(C)C)C[C@H]5C)nc4)cc3OC(F)(F)F)cc2)c[nH]1)C(C)C [Example 4-38] |  | C (C represents pEC50 between and 9 and about 10, (EC50 between 1 nM and 0.1 nM)) |
| CNC(=O)N1CCC[C@@]1(C)C(=O)N1C[C@@H](C)N(c2ccc(NC(=O)c3ccc(-c4ccc(-c5c[nH]c([C@@H]6C[C@H](C)CN6C(=O)[C@@H](NC(=O)OC)C(C)C)n5)cc4)c(OC(F)(F)F)c3)cn2)C[C@@H]1C [Example 4-9] |  | D (D represents pEC50>10 (EC50<0.1 nM)) |
| COC(=O)N[C@H](C(=O)N1C[C@@H](C)C[C@H]1c1nc(-c2ccc(-c3cc(F)c(NC(=O)c4ccc(N5CCN(C(=O)C(C)(C)CO)C[C@H]5C)nc4)cc3OC(F)(F)F)cc2)c[nH]1)[C@H](C)O [Example 13-26] | < 0.1 nM |  |
| COC(=O)N[C@H](C(=O)N1[C@H](c2nc(-c3ccc(-c4ccc(C(=O)Nc5ccc(N6CCN(C(=O)[C@]7(C)CCCN7C(=O)[C@@H](NC(=O)OC)C(C)C)C[C@H]6C)nc5)cc4OC(F)(F)F)cc3)c[nH]2)C[C@@H]2CCCC[C@@H]21)C(C)C [Example 6-14] | < 0.1 nM |  |

| SMILES | EC50 | Genotype 1a |
| --- | --- | --- |
| COC(=O)N[C@H](C(=O)N1C[C@@H](C)C[C@H]1c1nc(-c2ccc(-c3cc(Cl)c(NC(=O)c4ccc(N5CCN(C(=O)NN6CCOCC6)C[C@H]5C)nc4)cc3OC(F)(F)F)cc2)c[nH]1)C(C)C [Example 12-18] | < 0.1 nM |  |
| COC(=O)N[C@H](C(=O)N1CC(C)(C)C[C@H]1c1nc(-c2ccc(-c3ccc(C(=O)Nc4ccc(N5CCN(C(=O)[C@]6(C)CCCN6C(=O)[C@@H](NC(=O)OC)C(C)C)C[C@H]5C)nc4)cc3OC(F)(F)F)cc2)c[nH]1)C(C)C [Example 6-6] | 0.1 to 1 nM |  |
| COC(=O)NC(C(=O)N1C(C)CCC1c1nc(-c2ccc(-c3ccc(C(=O)Nc4ccc(N5CCN(C(=O)C6CC6(C)C)CC5C)nc4)cc3OC(F)(F)F)cc2)c[nH]1)C(C)C (centres unmarked) [Example 18-3] |  | C (C represents pEC50 between and 9 and about 10, (EC50 between 1 nM and 0.1 nM)) |
| COC(=O)NC(C(=O)N1CC(OC)CC1c1nc(-c2ccc(-c3cc(F)c(NC(=O)c4ccc(N5CCN(C(=O)C(C)(C)CO)CC5C)nc4)cc3OC(F)(F)F)cc2)c[nH]1)C(C)O (centres unmarked) [Example 16-12] |  | C (C represents pEC50 between and 9 and about 10, (EC50 between 1 nM and 0.1 nM)) |
| COC(=O)N[C@H](C(=O)N1C[C@@H](C)C[C@H]1c1nc(-c2ccc(-c3cc(F)c(C(=O)Nc4ccc(N5CCN(C(=O)C(C)(C)C)C[C@H]5C)nc4)cc3OC(F)(F)F)cc2)c[nH]1)C(C)C [Example 4-41] |  | C (C represents pEC50 between and 9 and about 10, (EC50 between 1 nM and 0.1 nM)) |
| COC(=O)NC(C(=O)N1C[C@@H](C)C[C@H]1c1nc(-c2ccc(-c3cc(Cl)c(C(=O)Nc4ccc(N5CCN(C(=O)C(C)(C)C)C[C@H]5C)nc4)cc3OC(F)(F)F)cc2)c[nH]1)C1C[C@@H](C)O[C@@H](C)C1 (some centres unmarked) [Example 23-2] |  | D (D represents pEC50>10 (EC50<0.1 nM)) |
| COC(=O)N[C@H](C(=O)N1C[C@@H](C)C[C@H]1c1nc(-c2ccc(-c3cc(Cl)c(NC(=O)c4ccc(N5CCN(C(=O)C(C)(C)C)C[C@H]5C)nc4)c(Cl)c3OC(F)(F)F)cc2)c[nH]1)C(C)C [Example 5-14] | 0.1 to 1 nM |  |
| COC(=O)N[C@H](C(=O)N1C[C@@H](C)C[C@H]1c1nc(-c2ccc(-c3cc(Cl)c(NC(=O)c4ccc(N5CCN(C(=O)[C@H]6CC6(C)C)C[C@H]5C)nc4)cc3C(F)(F)F)cc2)c[nH]1)C(C)C [Example 1-31] |  | D (D represents pEC50>10 (EC50<0.1 nM)) |
| COC(=O)NC(C(=O)N1CC(F)CC1c1nc(-c2ccc(-c3cc(Cl)c(NC(=O)c4ccc(N5CCN(C(=O)C(C)(C)CO)CC5C)nc4)cc3OC(F)(F)F)cc2)c[nH]1)C(C)C (centres unmarked) [Example 29-3] |  | C (C represents pEC50 between and 9 and about 10, (EC50 between 1 nM and 0.1 nM)) |
| COC(=O)N[C@H](C(=O)N1C[C@H](N2Cc3ccccc3C2)C[C@H]1c1nc(-c2ccc(-c3cc(Cl)c(NC(=O)c4ccc(N5CCN(C(=O)C(C)(C)C)C[C@H]5C)nc4)cc3OC(F)(F)F)cc2)c[nH]1)C(C)C [Example 5-10] | 10 to 1000 nM |  |
| COC(=O)N[C@H](C(=O)N1C[C@@H](C)C[C@H]1c1nc(-c2ccc(-c3cc(Cl)c(NC(=O)c4ccc(N5CCN(C(=O)C6(N(C)C)CC6)C[C@H]5C)nc4)cc3OC(F)(F)F)cc2)c[nH]1)C(C)C [Example 12-10] | < 0.1 nM |  |
| COC(=O)NC(C(=O)N1CC(C)CC1c1nc(-c2ccc(-c3cc(Cl)c(NC(=O)c4ccc(N5CCN(C(=O)C6CC6(F)Cl)CC5C)nc4)cc3OC(F)(F)F)cc2)c[nH]1)C(C)C (mixture of isomers) [Example 1-59] |  | D (D represents pEC50>10 (EC50<0.1 nM)) |
| COC(=O)N[C@H](C(=O)N1C[C@@H](C)C[C@H]1c1nc(-c2ccc(-c3ccc(C(=O)Nc4ccc(N5C[C@H](C)N(C(=O)C6CC6C)C[C@H]5C)nc4)cc3OC(F)(F)F)cc2)c(Cl)[nH]1)C(C)C (some centres unmarked) [Example 4-13] |  | C (C represents pEC50 between and 9 and about 10, (EC50 between 1 nM and 0.1 nM)) |
| COC(=O)N[C@H](C(=O)N1C[C@@H](C)C[C@H]1c1nc(-c2ccc(-c3cc(Cl)c(NC(=O)c4ccc(N5CCN(C(=O)C6CC6(Cl)Cl)C[C@H]5C)nc4)cc3OC(F)(F)F)cc2)c[nH]1)C(C)C (single isomer, unassigned) [Example 1-56] |  | D (D represents pEC50>10 (EC50<0.1 nM)) |
| COC(=O)N[C@H](C(=O)N1[C@@H](C)CC[C@H]1c1nc(-c2ccc(-c3ccc(C(=O)Nc4ccc(N5CCN(C(=O)C(C)(C)C)C[C@H]5C)nc4)cc3OC(F)(F)F)cc2)c[nH]1)C(C)C [Example 18-4] |  | C (C represents pEC50 between and 9 and about 10, (EC50 between 1 nM and 0.1 nM)) |
| COC(=O)NC(C(=O)N1C[C@@H](C)C[C@H]1c1nc(-c2ccc(-c3ccc(C(=O)Nc4ccc(N5CCN(C(=O)C(C)(C)C)C[C@H]5C)nc4)c(Cl)c3OC(F)(F)F)cc2)c[nH]1)C(C)C (some centres unmarked) [Example 25-4] | 0.1 to 1 nM |  |
| CCC(=O)NCC(C)(C)C(=O)N1CCN(c2ccc(C(=O)Nc3cc(OC(F)(F)F)c(-c4ccc(-c5c[nH]c([C@@H]6C[C@H](C)CN6C(=O)[C@@H](NC(=O)OC)C(C)C)n5)cc4)cc3Cl)cn2)[C@H](C)C1 [Example 12-41] | 0.1 to 1 nM |  |
